Laboratory results as given in patent publication US20220119399A1, “COMPOUNDS AND COMPOSITIONS THAT CAUSE MYCN AND/OR CMYC DEGRADATION AND METHODS OF USE THEREOF” (THE TRUSTEES OF COLUMBIA UNIVERSITY IN THE CITY OF NEW YORK, priority 2018, published 2022).
“Also recorded” adds a separate entry of the source. Values belong to the molecule of their own block, whether it stands above or below them. Where a SMILES comes first, the peptide text is derived from it. The star is where a group is joined. Cbz = O=C(OCc1ccccc1)*

What was measured:
[1] = tested on: SK-N-Be2 cells; assay: Cell viability assay (CellTiterGlo) in SK-N-Be2 cells; type: cell-based, human; details: for IC20: determined empirically
[2] = tested on: MycN^AMP regulatory module (Master Regulators, TCM); assay: PLATE-Seq with VIPER analysis: reversion of the MycN^AMP master regulator module; type: cell-based, human; details: SK-N-Be2 cells, IC20, 24 hrs
Source text: Reads were mapped against the human reference genome version Grch38 using the STAR aligner, and used the variance stabilizing transformation from the DESeq2 package for R to normalize each plate. Next, we corrected for batch effect due to having compounds replicates on separate plates. We used the function combat from the sva package for R to compute the batch-corrected normalized gene expression, and fitted a linear model for each compound against the set of DMSO controls on each plate (6 wells per plate per DMSO-treated cells). We used the limma package for R to fit the linear model and to compute p-values and moderated t-statistics for each gene. For each compound, we used a vector of these statistics to generate a gene expression profile of z-scores representing the compound effect as differential between post- and pre-treatment.
Each compound gene expression profile was analyzed using the VIPER algorithm (Alvarez et al. 2016) with TARGET and NRC NBL interactomes, reverse-engineered as described in (Rajbhandari et al. 2018), resulting in two protein activity profiles for each compound that were integrated using Stouffer's z-score method.

[3] = tested on: Histone H3 phosphorylation; assay: Histone H3 phosphorylation western blot; type: cell-based; details: 1 μM
Source text: Membranes were blocked using Odyssey Blocking Buffer (LI-COR) for 1 hr at room temperature. […] Primary antibodies used in these studies include: MycN (CST; 1:500 dilution), Actin (SCBT; 1:2000 dil.), cMYC (CST; 1:500 dil.), pAKT (S473; CST; 1:500 dil.), AKT (CST; 1:2000), pP70 (T389; CST; 1:1000) P70 (CST; 1:1000).
We also compared the potency of these drugs against a recently developed AurKA inhibitor that acts by disrupting protein confirmation rather than simply blocking the protein:protein interaction site as alisertib does.

[4] = molecular target: T1, CK2a1 (Homo sapiens, UniProt P68400); assay: Cell-free biochemical CK2a1 kinase assay
T1 construct: purchased Reaction Biology Corporation (Malvern, Pa.)
T1 sequence (P68400 whole entry): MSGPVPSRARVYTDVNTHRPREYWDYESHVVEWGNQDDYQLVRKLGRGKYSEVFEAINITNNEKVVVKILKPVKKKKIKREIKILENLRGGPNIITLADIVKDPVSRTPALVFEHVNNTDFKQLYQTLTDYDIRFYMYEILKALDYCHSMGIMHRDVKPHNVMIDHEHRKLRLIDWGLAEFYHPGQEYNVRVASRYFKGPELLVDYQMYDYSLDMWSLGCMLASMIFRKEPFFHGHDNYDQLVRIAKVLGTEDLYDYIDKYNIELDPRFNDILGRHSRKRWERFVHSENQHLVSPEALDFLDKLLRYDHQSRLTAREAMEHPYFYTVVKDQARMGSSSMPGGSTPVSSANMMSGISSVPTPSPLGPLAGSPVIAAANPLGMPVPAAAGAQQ
Procedure: Cell-free biochemical kinase assays were performed at Reaction Biology Corporation (Malvern, Pa.). In brief, kinase substrates were diluted into reaction buffer containing 20 mM Hepes (pH 7.5), 10 mM MgCl2, 1 mM EGTA, 0.02% Brij35, 0.02 mg/ml BSA, 0.1 mM Na3VO4, 2 mM DTT, 1% DMSO. Purified protein (CK2a1, CK2a2, or mTOR) was added to the substrate solution and gently mixed. Test compounds were diluted from 10 mM DMSO stock solutions into the reaction buffer using an Echo550 acoustic dispenser, followed by incubation at RT for 20 min. 33P-ATP (10 μCi/μL) was added to reaction mixture, following incubation for 2 h at RT. Reactions were then spotted onto P81 ion exchange paper and kinase activity was detected by filter binding method.

[5] = tested on: SK-N-Be2 cells; type: in vitro ADME, human
Procedure: In brief, SK-N-Be2 cells were seeded at 400 k cells/well in 6 w plates and incubated overnight. The following day, compounds were added to wells at indicated concentrations, with DMSO-only control added to non-treated wells. Following treatment for the indicated time periods, cells were trypsinized, rinsed twice with cold PBS to remove media, pelleted by centrifugation, and frozen at −20° C. To extract compounds, frozen pellets were resuspended in 150 μL of acetonitrile, sonicated for 2′, and centrifuged at 1400×g for 75′ at 4° C. Supernatant was collected and analyzed by LC-MS using a system comprised of a Thermo Scientific Dionex Ultimate 3000 and a Bruker amaZon SL equipped with an electrospray ionization source controlled by a Bruker Hystar 3.2. Compounds were separated by injecting 20 μL of supernatant onto an Agilent Eclipse Plus C18 column (2.1×50 mm, […]) maintained at 20° C., with the flow rate set at 400 μL/min. Initial flow conditions were 60% solvent A (MilliQ H2O, 0.1% acetic acid), and 40% solvent B (HPLC-grade MeOH, 0.1% acetic acid). Solvent B was raised to 60% over 0.25 min and to 70% by 6.75 min. Solvent B was raised to 95% by 7 min and lowered back to 40% by 8 minutes; total run time was 9 min (Bos et al. 2019).

[6] = tested on: mutant isoform of CK2a1; assay: Cell viability after expression of mutant CK2a1 isoform; details: versus GFP-expressing plasmid
[7] = tested on: MYCN transcript; assay: RNASeq analysis of SK-N-Be2 cells, MYCN transcript; type: cell-based, human; details: 3 μM or 10 μM, 3 h and 6 h
Procedure: (§1) To uncover changes in gene expression that underpin responses to pomiferin and isopomiferin, RNASeq analysis of SK-N-Be2 cells was performed following treatment with the two active prenylated isoflavonoids as well as a null analog that served as a negative control. SK-N-Be2 cells were treated with either 3 μM or 10 μM of isopomiferin or pomiferin and sampled after 3 h and 6 h. […] By comparing the active to the null analogs, downstream analyses can focus on changes in gene expression associated with the MYCN signature.

[8] = tested on: TEAD4 transcript; assay: RNASeq analysis of SK-N-Be2 cells, TEAD4 transcript; type: cell-based, human; details: 3 μM or 10 μM, 3 h and 6 h
Procedure: as §1

[9] = tested on: MYCN MR signature; assay: RNASeq with VIPER analysis of the MYCN MR signature; type: cell-based, human; details: SK-N-Be2 cells; listed as dimethyl pomiferin
Procedure: as §1
Intriguingly, only six MRs were suppressed by pomiferin and isopomiferin, while being unaffected by the null analog dimethyl pomiferin (FIG. 20B).

[10] = molecular target: mTOR (Homo sapiens, UniProt P42345); details: Bajer et al. 2014; cited from earlier work
[11] = Metabolic stability in mouse liver microsomes; type: in vitro ADME; details: 2 h incubation, positive control
Procedure: Mouse liver microsomes (Xenotech) were diluted to 0.5 mg/mL in a solution containing 100 mM PBS buffer at 7.4 pH, an NADPH regenerating system (Promega), and test compounds at 20 μM. The mixture was incubated at 37° C. under gentle rotation for the indicated time points. The reaction was quenched by aliquoting 15 μL of solution into 60 μL ice-cold acetonitrile containing an internal standard. Test compounds were quantified by LC-MS using a system comprised of a Thermo Scientific Dionex Ultimate 3000 and a Bruker amaZon SL equipped with an electrospray ionization source controlled by a Bruker Hystar 3.2. Compounds were separated by injecting 20 μL of sample onto an Agilent Eclipse Plus C18 column (2.1×50 mm, […]) maintained at 20° C., with the flow rate set at 400 μL/min. Initial flow conditions were 60% solvent A (MilliQ H2O, 0.1% acetic acid), and 40% solvent B (HPLC-grade MeOH, 0.1% acetic acid). Solvent B was raised to 60% over 0.25 min and to 70% by 6.75 min. Solvent B was raised to 95% by 7 min and lowered back to 40% by 8 minutes; total run time was 9 min.

[12] = Homo sapiens, SKNBE2, SK-N-Be2 cells

SMILES: OC(c1cc(-c2ccc(C(F)(F)F)cc2)nc(C(F)(F)F)c1)C1CCCCN1 (stereo not shown) [NSC305798]
IC20 ([1]; SK-N-Be2 cells): 5 µM

SMILES: CC[C@@H](C(=O)O)[C@@H]1O[C@@H]([C@@H](C)[C@H](O)[C@H](C)C(=O)[C@H](CC)[C@H]2O[C@]3(C=C[C@@H](O)[C@]4(CC[C@@](C)([C@H]5CC[C@](O)(CC)[C@H](C)O5)O4)O3)[C@H](C)C[C@@H]2C)[C@@H](C)C[C@@H]1C [Narasin]
IC20 [1, 12]: 1 µM

SMILES: COc1cc([C@@H]2c3cc4c(cc3[C@H](O)[C@H]3COC(=O)[C@H]23)OCO4)cc(OC)c1OC [Podofilox]
IC20 [1, 12]: 1 µM

SMILES: COc1cccc2c1C(=O)c1c(O)c3c(c(O)c1C2=O)C[C@@](O)(C(=O)CO)C[C@@H]3O[C@H]1C[C@H](N)[C@H](O)[C@H](C)O1 [doxorubicin]
reversion of the MR regulatory module / TCM (VIPER of PLATE-Seq) [2]: induced spurious effects

SMILES: CN(C)c1ccc2nc3ccc(=[N+](C)C)cc-3sc2c1 [Methylene Blue]
IC20 [1, 12]: 2 µM | Histone H3 phosphorylation [3]: inhibit Histone H3 phosphorylation

cell permeability [5]: poor cell permeability | amount of compound detected in cell sample ([5]; human, 20 μM): 2.2 ng
SMILES: O=C(O)c1ccc2c(c1)nc(Nc1cccc(Cl)c1)c1ccncc12 [CX-4945]
CK2a1 kinase activity [4]: completely inhibited kinase activity of CK2a at all concentrations tested | resistance conferred by mutant CK2 isoform [6]: modest resistance

SMILES: CN(C)c1ccc2nc3ccc(N)cc3[s+]c2c1.[Cl-] [Azure A]
IC20 ([1]; SK-N-Be2 cells): 1 µM | Histone H3 phosphorylation [3]: inhibit Histone H3 phosphorylation

SMILES: c1ccc(-c2cccc(-c3ccccn3)n2)nc1 [NSC3905]
IC20 ([1]; SK-N-Be2 cells): 3 µM

SMILES: c1ccc2c(c1)Nc1ccccc1S2 [phenothiazine]
activity in NBL cells (cell viability) ([1]; NBL cell lines, 48 hrs): inactive in NBL | reversion of the MR regulatory module / TCM (VIPER of PLATE-Seq) [2]: does not revert the signature

SMILES: COc1cc(Nc2ncc3c(n2)-c2ccc(Cl)cc2C(c2c(F)cccc2OC)=NC3)ccc1C(=O)O [alisertib]
reversion of the MR regulatory module / TCM (VIPER of PLATE-Seq) [2]: does not suppress the regulatory signature in the same way as isopomiferin | Histone H3 phosphorylation [3]: inhibit Histone H3 phosphorylation

SMILES: COc1ccc(-c2coc3c4c(c(CC=C(C)C)c(O)c3c2=O)OC(C)(C)C=C4)cc1OC [pomiferin dimethyl ether, 3-(3,4-dimethoxyphenyl)-5-hydroxy-8,8-dimethyl-6-(3-methylbut-2-en-1-yl)-4H,8H-pyrano[2,3-f]chromen-4-one]
inhibition of SK-N-Be2 cell viability (rank or activity in words) ([1]; SK-N-Be2 cells, 72 hrs): inactivity at 20 μM | MYCN transcript abundance (RNASeq) [7]: did not affect either MYCN or TEAD4 | TEAD4 transcript (RNASeq) [8]: did not affect either MYCN or TEAD4 | effect on the MYCN MR signature (VIPER of RNASeq) [9]: does not revert the MYCN signature; also recorded: did not

SMILES: COc1c(C)c2c(c(O)c1C/C=C(\C)CCC(=O)O)C(=O)OC2 [Mycophenolic acid]
IC20 [1, 12]: 2.5 µM

SMILES: CC(=O)Oc1ccc(-c2coc3c4c(c(CC=C(C)C)c(OC(C)=O)c3c2=O)OC(C)(C)C=C4)cc1OC(C)=O [pomiferin triacetate, 4-(5-acetoxy-8,8-dimethyl-6-(3-methylbut-2-en-1-yl)-4-oxo-4H,8H-pyrano[2,3-f]chromen-3-yl)-1,2-phenylene diacetate]
mTOR activity and general kinase inhibition [10]: can inhibit mTOR activity; also recorded: does not possess general kinase inhibition activity

SMILES: Oc1ccc(Cl)c2cccnc12 [Cloxyquin]
IC20 [1, 12]: 5 µM

SMILES: CC(C)C[C@@H](C=O)NC(=O)[C@H](CC(C)C)NC(=O)[C@H](CC(C)C)NC(=O)OCc1ccccc1 [MG132] (Cbz-Leu-Leu-Leu-aldehyde)
resistance conferred by mutant CK2 isoform [6]: no resistance was conferred by the plasmid

SMILES: CCOc1ccc2ccc(=O)oc2c1 [7-ethoxycoumarin, reference compound]
metabolism by mouse liver microsomes [11]: metabolized across the duration of the assay

SMILES: CO[C@H]1/C=C\C=C(/C)C(=O)NC2=CC(=O)C(N)=C(C[C@@H](C)C[C@H](OC)[C@H](O)[C@@H](C)/C=C(\C)[C@@H]1OC(N)=O)C2=O [NSC255109]
IC20 ([1]; SK-N-Be2 cells): 2.5 µM

SMILES: CC(=O)[C@@]1(O)[C@H](C)C[C@H]2[C@@H]3C=C(C)C4=Cc5c(cnn5-c5ccccc5)C[C@]4(C)[C@H]3[C@@H](O)C[C@@]21C [NSC80997]
IC20 ([1]; SK-N-Be2 cells): 7.5 µM
